Measurements published in publication PMC11923385, “Rational Design, Synthesis, and Biological Assessment of Potential Indole‐Capped HDAC6 Inhibitors for Gastric Cancer Suppression” (MedComm, 2025).
Like-named read-outs stand apart in the source and are kept apart here.

Legend:
HDAC1 = HDAC1 (Homo sapiens, UniProt Q13547); assay: HDAC1 enzyme activity assay; format: biochemical; details: HDAC1 compared to HDAC6
HDAC2 = HDAC2 (Homo sapiens, UniProt Q92769); assay: HDAC2 enzyme activity assay; format: biochemical; details: HDAC2 compared to HDAC6
HDAC2, sequence (Q92769 whole entry, species assumed): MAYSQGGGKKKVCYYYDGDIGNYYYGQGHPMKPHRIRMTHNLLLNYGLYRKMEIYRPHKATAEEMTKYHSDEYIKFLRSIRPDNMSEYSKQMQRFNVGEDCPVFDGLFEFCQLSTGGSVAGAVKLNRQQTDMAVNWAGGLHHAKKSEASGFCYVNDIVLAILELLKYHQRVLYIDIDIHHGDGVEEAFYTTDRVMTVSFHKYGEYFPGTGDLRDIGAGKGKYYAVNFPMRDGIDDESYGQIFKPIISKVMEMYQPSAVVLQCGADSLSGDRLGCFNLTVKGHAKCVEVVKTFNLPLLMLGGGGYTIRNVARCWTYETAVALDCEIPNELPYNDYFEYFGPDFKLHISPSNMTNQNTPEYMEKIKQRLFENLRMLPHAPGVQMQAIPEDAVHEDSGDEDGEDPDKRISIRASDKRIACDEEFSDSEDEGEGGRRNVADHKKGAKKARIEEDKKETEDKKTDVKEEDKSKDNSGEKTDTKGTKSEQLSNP

HDAC3 = HDAC3 (Homo sapiens, UniProt O15379); assay: HDAC3 enzyme activity assay; format: biochemical; details: HDAC3 compared to HDAC6
HDAC3, sequence (O15379 whole entry, species assumed): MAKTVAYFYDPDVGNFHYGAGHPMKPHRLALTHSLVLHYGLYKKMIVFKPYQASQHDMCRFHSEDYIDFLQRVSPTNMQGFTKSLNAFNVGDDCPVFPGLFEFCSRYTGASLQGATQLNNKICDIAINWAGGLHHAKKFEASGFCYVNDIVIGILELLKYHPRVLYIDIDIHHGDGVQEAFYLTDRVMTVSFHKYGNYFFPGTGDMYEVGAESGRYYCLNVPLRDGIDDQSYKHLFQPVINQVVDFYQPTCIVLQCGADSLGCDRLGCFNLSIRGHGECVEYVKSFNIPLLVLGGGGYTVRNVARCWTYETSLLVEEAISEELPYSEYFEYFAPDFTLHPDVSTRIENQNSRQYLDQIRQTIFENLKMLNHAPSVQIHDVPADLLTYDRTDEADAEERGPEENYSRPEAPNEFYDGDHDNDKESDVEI
HDAC3, sequence (Q9Y618 395-489 partner limits assumed, species assumed): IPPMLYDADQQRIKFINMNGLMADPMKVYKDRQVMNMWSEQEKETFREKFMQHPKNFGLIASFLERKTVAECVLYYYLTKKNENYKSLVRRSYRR

HDAC8 = molecular target: T1, HDAC8 (Homo sapiens, UniProt Q9BY41); assay: HDAC8 enzyme activity assay; format: biochemical; details: HDAC8 compared to HDAC6
T1 sequence (Q9BY41 1-377): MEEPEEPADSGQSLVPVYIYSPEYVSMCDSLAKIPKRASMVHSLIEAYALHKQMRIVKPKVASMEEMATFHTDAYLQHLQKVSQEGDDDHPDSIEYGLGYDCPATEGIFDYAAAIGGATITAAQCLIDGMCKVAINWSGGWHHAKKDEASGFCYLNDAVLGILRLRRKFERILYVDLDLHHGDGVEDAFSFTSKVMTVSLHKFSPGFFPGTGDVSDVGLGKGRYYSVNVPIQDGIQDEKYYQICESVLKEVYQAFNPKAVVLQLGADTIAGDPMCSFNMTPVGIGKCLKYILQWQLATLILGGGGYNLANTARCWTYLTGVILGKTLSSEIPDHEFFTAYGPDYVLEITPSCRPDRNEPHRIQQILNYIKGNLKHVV
Description: (§1) The HDAC6 substrate Ac-Lys-AMC (Chinapeptides, China), human recombinant protein HDAC6 (100 ng/mL) (BPS bioscience, USA), and the test compounds were incubated together at 37°C in an assay buffer. The assay buffer consisted of 25 mM HEPES (pH 7.5), 100 mM NaCl, 2.5 mM KCl, 0.005% Tween-20, 1 mM MgCl2, and 0.1 mg/mL bovine serum albumin. After incubation for 1 hour, trypsin was added to release the fluorescent fragment.

HDAC6 [1] = molecular target: T2, HDAC6 (Homo sapiens, UniProt Q9UBN7); assay: BLI binding assay; details: biotinylated HDAC6 on streptavidin biosensors
T2 sequence (Q9UBN7 1-1215): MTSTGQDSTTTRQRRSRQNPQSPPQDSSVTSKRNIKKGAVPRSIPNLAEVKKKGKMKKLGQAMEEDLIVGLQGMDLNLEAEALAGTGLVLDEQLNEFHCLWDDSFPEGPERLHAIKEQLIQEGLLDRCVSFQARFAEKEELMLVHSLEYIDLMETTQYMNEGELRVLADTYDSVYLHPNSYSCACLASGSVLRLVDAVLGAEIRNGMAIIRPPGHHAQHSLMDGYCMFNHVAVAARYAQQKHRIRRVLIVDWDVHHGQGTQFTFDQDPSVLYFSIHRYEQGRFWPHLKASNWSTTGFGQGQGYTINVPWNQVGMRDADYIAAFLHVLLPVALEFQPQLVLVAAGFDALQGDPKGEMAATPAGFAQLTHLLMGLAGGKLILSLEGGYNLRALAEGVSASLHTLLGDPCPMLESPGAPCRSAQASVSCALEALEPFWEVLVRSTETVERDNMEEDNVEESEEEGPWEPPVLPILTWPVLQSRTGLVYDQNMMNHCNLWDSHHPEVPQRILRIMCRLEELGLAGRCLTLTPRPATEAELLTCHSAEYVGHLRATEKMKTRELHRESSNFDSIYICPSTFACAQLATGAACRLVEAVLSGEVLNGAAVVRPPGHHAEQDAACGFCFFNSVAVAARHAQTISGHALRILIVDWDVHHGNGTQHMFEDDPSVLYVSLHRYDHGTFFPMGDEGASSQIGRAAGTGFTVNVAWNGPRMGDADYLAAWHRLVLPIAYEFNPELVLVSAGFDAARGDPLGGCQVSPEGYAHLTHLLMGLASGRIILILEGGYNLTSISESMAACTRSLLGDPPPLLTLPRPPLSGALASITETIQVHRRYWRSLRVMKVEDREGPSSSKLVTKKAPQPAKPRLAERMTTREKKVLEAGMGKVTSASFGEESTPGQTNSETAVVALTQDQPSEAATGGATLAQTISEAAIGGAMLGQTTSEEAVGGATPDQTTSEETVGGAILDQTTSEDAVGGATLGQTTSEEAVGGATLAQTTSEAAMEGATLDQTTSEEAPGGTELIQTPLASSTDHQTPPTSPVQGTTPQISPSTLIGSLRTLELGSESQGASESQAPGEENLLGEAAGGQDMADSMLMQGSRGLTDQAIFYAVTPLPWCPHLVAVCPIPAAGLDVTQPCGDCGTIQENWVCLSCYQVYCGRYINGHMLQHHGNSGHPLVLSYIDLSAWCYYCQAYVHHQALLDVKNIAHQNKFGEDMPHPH
Description: BLI experiments were conducted using an Octet Red 96 instrument (ForteBio). Streptavidin-coated biosensors (SA, ForteBio) were utilized, and biotinylated HDAC6 protein (50 μg/mL) was immobilized on the biosensor surface. The immobilization levels typically exceeded 0.3 nm. Ligand-loaded SA biosensors were then exposed to various concentrations of compound 10n. The dissociation constants for the interactions between HDAC6 and compound 10n were determined by plotting the increase in BLI response as a function of […].

MGC‐803 cells [2] = assay: Cytotoxicity against MGC-803 cells; format: cell-based; details: Homo sapiens, 72 h
MKN‐45 cells = assay: Cytotoxicity against MKN-45 cells; format: cell-based; details: Homo sapiens, 72 h
gastric cancer cells = assay: Apoptosis, mitochondrial membrane potential and apoptosis protein expression in gastric cancer cells; format: cell-based
Description: (§2) Following the indicated treatment, cells were collected and lysed using the recommended amount of radio immunoprecipitation assay (RIPA) buffer from KMT Bio, China, according to the provided instructions. The protein concentration in the lysate was determined using a bicinchoninic acid (BCA)-based protein quantification kit from KMT Bio, China. Subsequently, the samples were denatured in the presence of a 6× loading buffer from KMT Bio, China. Equal amounts of denatured protein samples were subjected to sodium dodecyl sulfate-polyacrylamide gel electrophoresis (SDS-PAGE), and the target protein was then transferred to a nitrocellulose membrane using the wet transfer method with Pall, USA membranes. The membrane was incubated with 5% non-fat milk at 37°C for 1 hour to block non-specific binding, followed by an overnight incubation at 4°C with the recommended concentration of the primary antibody. Afterward, the membranes were washed three times with PBST (PBS buffer with 0.1% Tween-20) for 10 minutes each. The secondary antibody was then appropriately diluted and incubated with the membrane at room temperature for 1 hour. Finally, the membranes were washed three more times with PBST for 10 minutes each, and the protein bands were visualized using an ECL chemiluminescence detection kit from ThermoFisher, USA.

HDAC6 [3] = molecular target: T2, HDAC6; assay: CETSA of HDAC6 at the cellular level; format: cell-based
[4] = system: HDAC6 (Ac‐α‐tubulin, Ac‐H3 readout); assay: Western blot of HDAC6, Ac-H3 and Ac-α-tubulin in cells; format: cell-based
Description: as §2

MGC‐803 cells [5] = assay: PD-L1 expression in MGC-803 cells; format: cell-based; details: compared to vehicle control
[6] = Pharmacokinetic study in mice; format: in vivo; details: male, ICR, mouse, plasma
Description: Six male ICR mice were divided into two groups, receiving compound 10n via intravenous and oral administration, respectively. The intravenous injection group had blood samples collected at 5 min, 15 min, 30 min, 1 h, 2 h, 4 h, 6 h, 8 h, and 24 h post-administration; the oral group had blood samples collected at the same time points. Approximately 0.05 mL of blood was collected for each sample. The concentration of compound 10n in mouse plasma samples was determined using LC-MS/MS method and pharmacokinetic parameters were calculated using WinNolin software.

MFC cells = format: in vivo, mice; details: for tumor growth inhibition rate (TGI): MFC tumor, 615 mice, 14 days
Description: Six-week-old 615 mice (male) were procured from SJA laboratory animals in Hunan, China, and acclimated to a pathogen-free environment for one week before the commencement of the experiment. Subsequently, 5 × 10^5 of gastric cancer cell MFC were subcutaneously administered into the right flank of the mice. Tumor volume was determined using the formula length × width^2/2. […] Following 14 days, the mice were euthanized, and their tumors and vital organs were dissected for analysis. Paraffin sections measuring 4 µm in thickness were subjected to deparaffinization and subsequently treated with 3% hydrogen peroxide to inhibit endogenous peroxidase activity. Following this, slides were prepared to prevent nonspecific antibody binding and were then exposed to primary antibodies targeting HDAC6, Ac-tubulin, Ki-67, and Tunnel. The mice involved in the study were maintained in specific pathogen-free environments, and the experimental procedures were approved by the Ethics Committee of the Zhengzhou University Health Science Centre. The animal experimentation ethics number is ZZU-URIB-2024-O-109. All experimental animals adhered to the ARRIVE guidelines and were strictly in accordance with the National Research Council Guidelines for the Care and Use of Laboratory Animals.

HDAC6 [7] = molecular target: T2, HDAC6; assay: HDAC6 enzymatic assay (Ac-Lys-AMC substrate, fluorescence); format: biochemical; set-up: purchased BPS bioscience, USA; details: enzyme activity assay
Description: as §1

HDAC1, sequence (Q13547 whole entry, species assumed): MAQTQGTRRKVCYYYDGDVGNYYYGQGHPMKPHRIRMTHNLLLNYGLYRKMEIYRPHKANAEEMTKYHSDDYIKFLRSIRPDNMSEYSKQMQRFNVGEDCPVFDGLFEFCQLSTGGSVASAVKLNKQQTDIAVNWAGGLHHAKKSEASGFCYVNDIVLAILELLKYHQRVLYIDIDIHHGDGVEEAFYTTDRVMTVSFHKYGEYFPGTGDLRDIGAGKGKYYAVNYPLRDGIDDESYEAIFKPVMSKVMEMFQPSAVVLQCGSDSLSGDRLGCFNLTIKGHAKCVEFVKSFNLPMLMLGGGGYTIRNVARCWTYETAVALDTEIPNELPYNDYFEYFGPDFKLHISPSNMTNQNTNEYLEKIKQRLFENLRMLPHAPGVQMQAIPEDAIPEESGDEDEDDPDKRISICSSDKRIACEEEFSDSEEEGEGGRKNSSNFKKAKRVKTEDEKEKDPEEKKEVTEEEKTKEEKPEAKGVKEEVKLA

O=C(NO)c1ccc(CNC(=O)c2cn(CC3CC3)c3ccccc23)cc1 [Compound 10n]
selectivity ratio HDAC1/6 (HDAC1): 133.7 fold | selectivity ratio HDAC2/6 (HDAC2): 27.8 fold | selectivity ratio HDAC3/6 (HDAC3): 82.8 fold | selectivity ratio HDAC8/6 (HDAC8): 622.22 fold | Kd (HDAC6 [1]): 330 ± 180 nM | IC50 (MGC‐803 cells [2]): 1070 ± 312 nM | IC50 (MKN‐45 cells): 2700 ± 935 nM | mitochondrial membrane potential ratios (gastric cancer cells): increase | proportion of apoptotic cells (gastric cancer cells): dose‐dependent increase | HDAC6 thermal stabilization (CETSA) (HDAC6 [3]): notably stabilized HDAC6 | acetylated H3 levels and HDAC6 [4]: no impact | acetylated α-tubulin levels [4]: dose‐dependent increase | PD-L1 expression (MGC‐803 cells [5]): dose‐dependent reduction | AUC ([6]; iv): 350 ± 51.9 ng·h/mL | half-life ([6]; iv): 1.61 ± 0.34 h | AUC ([6]; po): 730 ± 140 ng·h/mL | bioavailability ([6]; po): 41.8 ± 0.08% | half-life ([6]; po): 2 ± 0.44 h | tumor growth inhibition rate (TGI) (MFC cells; oral 10 mg/kg once daily): 55.3% | tumor growth inhibition rate (TGI) (MFC cells; oral 20 mg/kg once daily): 80.6% | toxicity in treated mice (body weight, organs) (MFC cells; MFC tumor-bearing mice, 10 or 20 mg/kg oral): no apparent toxicity | HDAC6 protein expression in treated animals (MFC cells; tumor tissue): no changes | Ki-67 expression in mice (MFC cells; tumor tissue): decreased | levels of Ac-α-tubulin in treated animals (MFC cells; tumor tissue, immunohistochemistry): markedly elevated | percentages of CD3+CD8+ cells in tumors (MFC cells; two treatment groups versus control): higher than the control | IC50 (HDAC6 [7]): 3.11 nM
